pIC50, pKi: −log10 of the molar value. Like-named read-outs stand apart in the source and are kept apart here.
Legend:
hMeprin β = molecular target: T1, hMeprin β (Homo sapiens, UniProt Q16820); test: Enzymatic assay, cleavage of internally quenched peptide substrate, hMeprin β; type: biochemical
T1 sequence (Q16820 62-701): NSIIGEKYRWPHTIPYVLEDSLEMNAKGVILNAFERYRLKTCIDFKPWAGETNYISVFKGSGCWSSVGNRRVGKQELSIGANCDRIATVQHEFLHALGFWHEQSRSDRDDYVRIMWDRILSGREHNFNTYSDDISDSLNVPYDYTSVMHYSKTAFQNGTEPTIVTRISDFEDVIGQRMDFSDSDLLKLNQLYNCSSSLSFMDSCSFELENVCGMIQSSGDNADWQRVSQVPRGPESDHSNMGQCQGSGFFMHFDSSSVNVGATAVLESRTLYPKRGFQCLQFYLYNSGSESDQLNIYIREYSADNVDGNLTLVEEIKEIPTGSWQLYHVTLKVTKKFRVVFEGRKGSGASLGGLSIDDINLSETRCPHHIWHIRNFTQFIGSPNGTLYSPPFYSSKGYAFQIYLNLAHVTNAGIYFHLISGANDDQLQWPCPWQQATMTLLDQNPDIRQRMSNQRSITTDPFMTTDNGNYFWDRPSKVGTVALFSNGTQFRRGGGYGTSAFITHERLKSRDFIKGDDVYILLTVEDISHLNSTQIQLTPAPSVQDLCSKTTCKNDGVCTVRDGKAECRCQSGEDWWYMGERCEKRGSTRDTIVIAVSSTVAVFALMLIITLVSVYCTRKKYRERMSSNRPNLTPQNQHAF
Description: (§1) A typical assay of 250 μl total volume measured in black 96 well plates consisted of 100 μl buffer, 50 μl enzyme at a final concentration of 5e-8 M to 5e-9 M, 50 μl substrate (0.15 to 80 μM, in buffer, 0.5% DMSO) and 50 μl inhibitor solution (in buffer, 1% DMSO). In case of 125 μl assay volume (black 96 half area well plates) all volumes were cut in half. Enzymatic activity of ADAMs was measured in 384 well plates with 60 μl total assay volume consisting of 20 μl inhibitor, 20 μl buffer, 10 μl enzyme and 10 μl substrate.
(§2) Ki values were assessed combining 4 substrate concentrations (5-40 μM) with at least 5 inhibitor concentrations. […] Initial velocities were determined and converted into concentration units applying a standard curve obtained after complete conversion of different substrate concentrations under assay conditions. All measurements were performed using a fluorescence plate reader (FLUOstar OPTIMA, BMG Labtech) at 30° C. The kinetic parameters were determined at least in duplicates on separate days. The excitation/emission wavelength was 340/420 nm. The kinetic data was evaluated using GraFit software (version 7.0.3, Erithacus Software).
(§3) The following compounds according to the present invention were synthesized using the above general procedures. IC50 refers to the average IC50 values measured as described above, SD (IC50) refers to the standard deviation of the average IC50 values, Ki refers to the average K; values measured as described above, and SD (Ki) to the standard deviation of the average Ki values.

hMeprin α = molecular target: T2, hMeprin α (Homo sapiens, UniProt Q16819); test: biochemical; type: biochemical
T2 sequence (Q16819 66-746): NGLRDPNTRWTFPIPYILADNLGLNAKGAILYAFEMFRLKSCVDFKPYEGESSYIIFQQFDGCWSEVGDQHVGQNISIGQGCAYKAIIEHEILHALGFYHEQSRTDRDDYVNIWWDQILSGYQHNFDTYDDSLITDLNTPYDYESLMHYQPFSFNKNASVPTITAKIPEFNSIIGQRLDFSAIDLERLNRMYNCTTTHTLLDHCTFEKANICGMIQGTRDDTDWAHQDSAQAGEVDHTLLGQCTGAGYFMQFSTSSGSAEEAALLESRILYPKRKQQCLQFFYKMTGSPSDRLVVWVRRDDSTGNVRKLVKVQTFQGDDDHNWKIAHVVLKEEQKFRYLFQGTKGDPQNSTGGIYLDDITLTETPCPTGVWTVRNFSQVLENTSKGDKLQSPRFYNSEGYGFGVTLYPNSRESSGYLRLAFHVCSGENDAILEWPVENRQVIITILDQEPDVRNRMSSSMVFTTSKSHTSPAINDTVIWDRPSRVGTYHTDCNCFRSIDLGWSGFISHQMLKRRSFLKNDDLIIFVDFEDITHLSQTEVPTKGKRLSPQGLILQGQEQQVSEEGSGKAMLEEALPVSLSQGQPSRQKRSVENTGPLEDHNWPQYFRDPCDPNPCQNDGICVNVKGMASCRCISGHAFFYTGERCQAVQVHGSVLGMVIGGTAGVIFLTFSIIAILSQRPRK
Description: as §1, §2, §3

[1] = average IC50, 10 μM substrate, 30° C., 40 mM HEPES pH 7.4, read-out: Meprin Alpha IC50
[2] = average Ki, 4 substrate concentrations (5-40 μM), 30° C., 40 mM HEPES pH 7.4, read-out: Meprin Alpha Ki
[3] = average IC50, 10 μM substrate, 30° C., 40 mM Tris pH 8.0, read-out: Meprin Beta IC50

pIC50 (hMeprin β)	pKi (hMeprin β)	pIC50 (hMeprin α; [1])	pKi (hMeprin α; [2])	SMILES	further results
4.50	–	–	–	O=C(O)c1cccc(CN2CCCC2C(=O)NO)c1 (stereo in doubt) [Example 12, 3-[[(2R)-2-(Hydroxycarbamoyl)pyrrolidin-1-yl]methyl]benzoic acid]	–
4.39	–	–	–	O=C(O)c1cccc(CN2CCCC2C(=O)NO)c1 (stereo in doubt) [Example 13, 3-[[(2S)-2-(Hydroxycarbamoyl)pyrrolidin-1-yl]methyl]benzoic acid]	–
6.33	6.65	4.07	–	O=C(CN(Cc1ccc(C(=O)O)cc1)Cc1ccc(C(=O)O)cc1)NO [Example 1, 4-[[(4-Carboxyphenyl)methyl-[2-(hydroxyamino)-2-oxo-ethyl]amino]methyl]benzoic acid]	–
4.59	4.81	–	–	COc1cccc(CN(CC(=O)NO)Cc2cccc(OC)c2)c1 [Example 5, 2-[bis[(3-Methoxyphenyl)methyl]amino]-ethanehydroxamic acid]	–
5.84	5.99	–	–	O=C(CN(Cc1ccc(-c2ccccc2)cc1)Cc1cccc(C(=O)O)c1)NO [Example 8, 3-[[[2-(Hydroxyamino)-2-oxo-ethyl]-[(4-biphenyl)methyl]amino]-methyl]benzoic acid]	–
6.45	6.80	5.43	5.96	COc1ccc(CN(CC(=O)NO)Cc2cccc(C(=O)O)c2)cc1F [Example 10, 3-[[(3-Fluoro-4-methoxy-phenyl)methyl-[2-(hydroxyamino)-2-oxo-ethyl]amino]methyl]benzoic acid]	–
4.64	–	–	–	COc1ccc(CN(CC(=O)NO)Cc2ccccc2C(=O)O)cc1 [Example 16, 2-[[[2-(Hydroxyamino)-2-oxo-ethyl]-[(4-methoxyphenyl)methyl]amino]-methyl]benzoic acid]	–
–	6.10	–	–	O=C(CN(Cc1ccccc1)Cc1cccc(C(=O)O)c1)NO [Example 17]	–
–	–	5.25	5.80	N#Cc1ccc(CN(CC(=O)NO)Cc2ccc(C#N)cc2)cc1 [Example 55, 2-[bis[(4-cyanophenyl)methyl]amino]-ethanehydroxamic acid]	–
–	–	5.30	6.00	COc1c(Cl)ccc(CN(CC(=O)NO)Cc2ccc(Cl)c(OC)c2F)c1F [Example 56, 2-[bis[(4-chloro-2-fluoro-3-methoxy-phenyl)-methyl]amino]ethanehydroxamic acid]	–
–	–	–	5.92	N#Cc1ccc(CN(CCC(=O)NO)Cc2ccc(C#N)cc2)cc1 [Example 57, 3-[bis[(4-cyanophenyl)methyl]amino]-propanehydroxamic acid]	–
–	–	–	6.80	COc1c(Cl)ccc(CN(CCC(=O)NO)Cc2ccc(Cl)c(OC)c2F)c1F [Example 65, 3-[bis[(4-chloro-2-fluoro-3-methoxy-phenyl)-methyl]amino]propanehydroxamic acid]	–

The next lines start with the compound.

SMILES	pIC50 (hMeprin β)	pKi (hMeprin β)	pIC50 (hMeprin α; [1])	pKi (hMeprin α; [2])	further results
O=C(CN(Cc1cccc(C(=O)O)c1)Cc1cccc(C(=O)O)c1)NO [Example 2, 3-[[(3-Carboxyphenyl)methyl-[2-(hydroxyamino)-2-oxo-ethyl]amino]methyl]benzoic acid]	–	7.74	4.51	4.98	–
O=C(CNCc1cccc(C(=O)O)c1)NO [Example 3, 3-[[[2-(Hydroxyamino)-2-oxo-ethyl]amino]-methyl]benzoic acid]	–	6.74	–	–	pIC50 (hMeprin β; [3]): 6.42
O=C(CN(Cc1ccc2c(c1)OCO2)Cc1ccc2c(c1)OCO2)NO [Example 4, 2-[bis(1,3-Benzodioxol-5-ylmethyl)amino]-ethanehydroxamic acid]	5.27	5.18	6.08	6.56	–
COc1ccc(CN(CC(=O)NO)Cc2cccc(C(=O)O)c2)cc1 [Example 6, 3-[[[2-(Hydroxyamino)-2-oxo-ethyl]-[(4-methoxyphenyl)methyl]amino]-methyl]benzoic acid]	–	7.41	–	5.92	–
O=C(CN(Cc1ccc(C(=O)O)cc1)Cc1cccc(C(=O)O)c1)NO [Example 7, 3-[[(4-Carboxyphenyl)methyl-[2-(hydroxyamino)-2-oxo-ethyl]amino]methyl]benzoic acid]	–	7.00	4.35	–	pIC50 (hMeprin β; [3]): 6.69
CCCOc1ccc(CN(CC(=O)NO)Cc2cccc(C(=O)O)c2)cc1 [Example 9, 3-[[[2-(Hydroxyamino)-2-oxo-ethyl]-[(4-propoxyphenyl)methyl]amino]-methyl]benzoic acid]	5.65	6.06	–	–	–
COc1cc(F)c(CN(CC(=O)NO)Cc2cccc(C(=O)O)c2)c(F)c1 [Example 11, 3-[[(2,6-Difluoro-4-methoxy-phenyl)methyl-[2-(hydroxyamino)-2-oxo-ethyl]amino]methyl]benzoic acid]	6.45	6.81	5.67	5.90	–
COc1cccc(CN(CC(=O)NO)Cc2cccc(C(=O)O)c2)c1 [Example 14, 3-[[[2-(Hydroxyamino)-2-oxo-ethyl]-[(3-methoxyphenyl)methyl]amino]-methyl]benzoic acid]	–	6.54	–	–	pIC50 (hMeprin β; [3]): 6.25
COc1ccc(CN(CC(=O)NO)Cc2ccc(OC)cc2)cc1 [Example 15, 2-[bis[(4-Methoxyphenyl)methyl]amino]ethane-hydroxamic acid]	4.50	–	–	–	–
Cc1ccc(CN(CC(=O)NO)Cc2cccc(C(=O)O)c2)cc1 [Example 18, 3-[[[2-(Hydroxyamino)-2-oxo-ethyl]-(p-tolyl-methyl)amino]methyl]benzoic acid]	6.44	6.77	5.33	5.70	–
N#Cc1ccc(CN(CC(=O)NO)Cc2cccc(C(=O)O)c2)cc1 [Example 19, 3-[[(4-Cyanophenyl)methyl-[2-(hydroxyamino)-2-oxo-ethyl]amino]methyl]benzoic acid]	–	6.90	5.31	5.71	pIC50 (hMeprin β; [3]): 6.49
O=C(CN(Cc1ccc(Cl)cc1)Cc1cccc(C(=O)O)c1)NO [Example 20, 3-[[(4-Chlorophenyl)methyl-[2-(hydroxyamino)-2-oxo-ethyl]amino]methyl]benzoic acid]	–	7.48	5.75	6.10	pIC50 (hMeprin β; [3]): 7.12
O=C(CN(Cc1ccc(F)cc1)Cc1cccc(C(=O)O)c1)NO [Example 21, 3-[[(4-Fluorophenyl)methyl-[2-(hydroxyamino)-2-oxo-ethyl]amino]methyl]benzoic acid]	–	5.77	–	–	pIC50 (hMeprin β; [3]): 6.75; pIC50 (hMeprin α): 5.38; pKi (hMeprin α): 5.77
O=C(CCN(Cc1ccc(Cl)cc1F)Cc1ccc(Cl)cc1F)NO [Example 62, 3-[bis[(4-chloro-2-fluoro-phenyl)methyl]-amino]propanehydroxamic acid]	–	–	–	6.77	–
O=C(CN(Cc1ccccc1)Cc1ccccc1)NO [Example 67, 2-(dibenzylamino) ethanehydroxamic acid]	–	–	5.10	5.51	–
